Here are results for 21 molecules from ChEMBL document CHEMBL3045385, “Design, synthesis and molecular modelling of novel 4-thiazolidinones of potential activity against Gram positive bacteria” (2013).

Experiment [1] has as its system Candida albicans. Kind of experiment: Antifungal activity against Candida albicans ATCC 10231 at 6.25 to 100 ug/ml after 7 days by two-fold serial dilution method. Type of experiment: functional, organism-based.
Experiment [2] has as its system Mycobacterium tuberculosis. Nature of the experiment: Antimycobacterium activity against Mycobacterium tuberculosis H37Rv at 100 ug/ml by Microplate Alamar Blue Assay. In kind it is functional, organism-based. A general note: The colour change of resazurin is a common sign of viable cells or microbes.
Experiment [3] deals with Pseudomonas aeruginosa. Kind of experiment: Antibacterial activity against Pseudomonas aeruginosa ATCC 27855 at 6.25 to 100 ug/ml after 24 hr by two-fold serial dilution method. In kind it is functional, organism-based.
The test system of a further experiment is Salmonella typhimurium. Nature of the experiment: Antibacterial activity against Salmonella enterica subsp. enterica serovar Typhimurium at 6.25 to 100 ug/ml after 24 hr by two-fold serial dilution method. Type of experiment: functional, organism-based.
For experiment [4], the system named is Bacillus subtilis. Kind of experiment: Antibacterial activity against Bacillus subtilis ATCC 10400 at 6.25 to 100 ug/ml after 24 hr by two-fold serial dilution method. In kind it is functional, organism-based.
A further experiment concerns Shigella sonnei. Kind of experiment: Antibacterial activity against Shigella sonnei ATCC 11060 at 6.25 to 100 ug/ml after 24 hr by two-fold serial dilution method. In kind it is functional, organism-based.
The test system of experiment [5] is Staphylococcus aureus. Nature of the experiment: Antibacterial activity against Staphylococcus aureus ATCC 25293 at 6.25 to 100 ug/ml after 24 hr by two-fold serial dilution method. In kind it is functional, organism-based.
A further experiment deals with Escherichia coli. Nature of the experiment: Antibacterial activity against Escherichia coli ATCC 25922 at 6.25 to 100 ug/ml after 24 hr by two-fold serial dilution method. In kind it is functional, organism-based.
The subject of experiment [6] is Staphylococcus aureus. Kind of experiment: Antibacterial activity against Staphylococcus aureus ATCC 25293 after 24 hr by two-fold serial dilution method. In kind it is functional. Particulars: ATCC 25293, 24 h.
Experiment [7] concerns Bacillus subtilis. Nature of the experiment: Antibacterial activity against Bacillus subtilis ATCC 10400 after 24 hr by two-fold serial dilution method. Type of experiment: functional. The conditions noted are these: ATCC 10400, 24 h.
The test system of experiment [8] is Candida albicans. Nature of the experiment: microbe, parasite or virus in culture. Particulars: ATCC 10231, 168 h.
Description: Antifungal activity against Candida albicans ATCC 10231 after 7 days by two-fold serial dilution method
Experiment [9] deals with Pseudomonas aeruginosa. Kind of experiment: Antibacterial activity against Pseudomonas aeruginosa ATCC 27855 after 24 hr by two-fold serial dilution method. In kind it is functional. Particulars: ATCC 27855, 24 h.

Converted amounts (≈) assume the structure as drawn. The source made the active and inactive calls. The rule behind the calls is not given here.

With `CC(Oc1cc(Cl)c(Cl)cc1Cl)C(=O)N/N=C\c1cccnc1` (configuration not stated), the result (with Candida albicans [1]; in experiment [2]; in the experiment on Pseudomonas aeruginosa [3]; in the experiment with Salmonella typhimurium; in the experiment on Bacillus subtilis [4]; with Shigella sonnei) was inactive. The result in the experiment with Staphylococcus aureus [5] and in the experiment on Escherichia coli was inactive.
Consider `CC(Oc1cc(Cl)c(Cl)cc1Cl)C(=O)NN1C(=O)CSC1c1cccnc1` (configuration not stated), for which the result (with Candida albicans [1]; in experiment [2]; in the experiment on Pseudomonas aeruginosa [3]; in the experiment on Salmonella typhimurium; in the experiment on Shigella sonnei; in the experiment with Escherichia coli) was inactive. Moreover, the figures for the MIC in the experiment with Staphylococcus aureus [6] and in the experiment with Bacillus subtilis [7] were 6.25 µg/mL (≈ 14 µM) and 12.5 µg/mL (≈ 28 µM), respectively.
Consider `Cc1ccc(/C=N\NC(=O)C(C)Oc2cc(Cl)c(Cl)cc2Cl)s1` (configuration not stated), for which the result (with Candida albicans [1]; in experiment [2]; in the experiment on Pseudomonas aeruginosa [3]; in the experiment on Salmonella typhimurium; in the experiment with Bacillus subtilis [4]; in the experiment on Shigella sonnei) was inactive. In addition, the result in the experiment with Staphylococcus aureus [5] and in the experiment on Escherichia coli was inactive.
As for `CC(Oc1cc(Cl)c(Cl)cc1Cl)C(=O)N/N=C\c1ccncc1` (configuration not stated), the result (in the experiment with Candida albicans [1]; in [2]; in the experiment on Pseudomonas aeruginosa [3]; in the experiment on Salmonella typhimurium; with Bacillus subtilis [4]; in the experiment with Shigella sonnei) was inactive. The result with Staphylococcus aureus [5] and with Escherichia coli was inactive.
Regarding `Cc1ccc(/C=N\NC(=O)C(C)Oc2cc(Cl)c(Cl)cc2Cl)o1` (configuration not stated), the result (in the experiment with Candida albicans [1]; in experiment [2]; with Pseudomonas aeruginosa [3]; with Salmonella typhimurium; with Bacillus subtilis [4]; with Shigella sonnei) was inactive. Also, the outcome in the experiment with Staphylococcus aureus [5] and in the experiment with Escherichia coli was inactive.
Consider `CC(Oc1cc(Cl)c(Cl)cc1Cl)C(=O)NN1C(=O)CSC1c1ccncc1` (configuration not stated), for which the outcome (in the experiment with Candida albicans [1]; in experiment [2]; with Pseudomonas aeruginosa [3]; with Salmonella typhimurium; in the experiment with Shigella sonnei; in the experiment on Escherichia coli) was inactive. Besides, the MIC against Staphylococcus aureus [6] and in the experiment on Bacillus subtilis [7] was 6.25 µg/mL (≈ 14 µM) throughout.
Consider `CC(Oc1cc(Cl)c(Cl)cc1Cl)C(=O)NN1C(=O)CSC1(C)c1ccc(Cl)cc1` (configuration not stated), for which the outcome (with Candida albicans [1]; in [2]; in the experiment on Pseudomonas aeruginosa [3]; with Salmonella typhimurium; in the experiment with Shigella sonnei; with Escherichia coli) was inactive. Besides, the MIC against Staphylococcus aureus [6] and in the experiment with Bacillus subtilis [7] was 12.5 µg/mL (≈ 25.3 µM) in each case.
As to `CC(Oc1cc(Cl)c(Cl)cc1Cl)C(=O)N/N=C\c1cccs1` (configuration not stated), the outcome (in the experiment with Candida albicans [1]; in [2]; with Pseudomonas aeruginosa [3]; with Salmonella typhimurium; in the experiment on Bacillus subtilis [4]; in the experiment with Shigella sonnei) was inactive. Moreover, the outcome in the experiment on Staphylococcus aureus [5] and with Escherichia coli was inactive.
In the case of `C#CCN1C(=O)C2(SCC(=O)N2NC(=O)C(C)Oc2cc(Cl)c(Cl)cc2Cl)c2ccccc21` (configuration not stated), the result (in the experiment on Candida albicans [1]; in experiment [2]; with Pseudomonas aeruginosa [3]; in the experiment with Salmonella typhimurium; in the experiment on Shigella sonnei; in the experiment with Escherichia coli) was inactive. In addition, the MIC with Staphylococcus aureus [6] and against Bacillus subtilis [7] was 50 µg/mL (≈ 95.3 µM) in each case.
Consider `CC(Oc1cc(Cl)c(Cl)cc1Cl)C(=O)N/N=C1/C(=O)Nc2ccccc21` (configuration not stated), for which the result (in the experiment with Candida albicans [1]; in [2]; in the experiment with Pseudomonas aeruginosa [3]; in the experiment with Salmonella typhimurium; in the experiment with Bacillus subtilis [4]; with Shigella sonnei) was inactive. For the same molecule, the outcome with Staphylococcus aureus [5] and in the experiment on Escherichia coli was inactive.
Consider `Cc1ccc(C2SCC(=O)N2NC(=O)C(C)Oc2cc(Cl)c(Cl)cc2Cl)o1` (configuration not stated), for which the result (in the experiment with Candida albicans [1]; in experiment [2]; with Pseudomonas aeruginosa [3]; with Salmonella typhimurium; in the experiment with Shigella sonnei; in the experiment on Escherichia coli) was inactive. In addition, the MIC against Staphylococcus aureus [6] and against Bacillus subtilis [7] was 12.5 µg/mL (≈ 27.8 µM) throughout.
With `Clc1ccc(COC(Cn2ccnc2)c2ccc(Cl)cc2Cl)c(Cl)c1` (configuration not stated) [MICONAZOLE], the MIC against Candida albicans [8] and against Pseudomonas aeruginosa [9] was 3.12 µg/mL (≈ 7.5 µM) throughout.
Take `C#CCN1C(=O)/C(=N/NC(=O)C(C)Oc2cc(Cl)c(Cl)cc2Cl)c2ccccc21` (configuration not stated): the result (in the experiment with Candida albicans [1]; in experiment [2]; in the experiment on Pseudomonas aeruginosa [3]; in the experiment on Salmonella typhimurium; in the experiment on Bacillus subtilis [4]; in the experiment with Shigella sonnei) was inactive. In addition, the outcome with Staphylococcus aureus [5] and with Escherichia coli was inactive.
`C/C(=N/NC(=O)C(C)Oc1cc(Cl)c(Cl)cc1Cl)c1ccc(C)cc1` (configuration not stated): the outcome (with Candida albicans [1]; in experiment [2]; in the experiment on Pseudomonas aeruginosa [3]; in the experiment with Salmonella typhimurium; in the experiment with Bacillus subtilis [4]; in the experiment with Shigella sonnei) was inactive. In addition, the outcome with Staphylococcus aureus [5] and in the experiment on Escherichia coli was inactive.
Consider `Cc1ccc(C2(C)SCC(=O)N2NC(=O)C(C)Oc2cc(Cl)c(Cl)cc2Cl)cc1` (configuration not stated), for which the result (with Candida albicans [1]; in experiment [2]; in the experiment on Pseudomonas aeruginosa [3]; in the experiment with Salmonella typhimurium; in the experiment on Shigella sonnei; with Escherichia coli) was inactive. The MIC worked out at 12.5 µg/mL (≈ 26.4 µM) against Staphylococcus aureus [6] and 6.25 µg/mL (≈ 13.2 µM) against Bacillus subtilis [7].
As for `C/C(=N/NC(=O)C(C)Oc1cc(Cl)c(Cl)cc1Cl)c1ccc(Cl)cc1` (configuration not stated), the result (with Candida albicans [1]; in [2]; with Pseudomonas aeruginosa [3]; in the experiment on Salmonella typhimurium; with Bacillus subtilis [4]; with Shigella sonnei) was inactive. The result in the experiment with Staphylococcus aureus [5] and in the experiment on Escherichia coli was inactive.
Consider `CC(Oc1cc(Cl)c(Cl)cc1Cl)C(=O)NN1C(=O)CSC1c1cccc([N+](=O)[O-])c1` (configuration not stated), for which the outcome (with Candida albicans [1]; in [2]; in the experiment with Pseudomonas aeruginosa [3]; in the experiment with Salmonella typhimurium; with Shigella sonnei; in the experiment with Escherichia coli) was inactive. Also, the MIC against Staphylococcus aureus [6] and with Bacillus subtilis [7] was 12.5 µg/mL (≈ 25.5 µM) throughout.
In the case of `Cc1ccc(C2SCC(=O)N2NC(=O)C(C)Oc2cc(Cl)c(Cl)cc2Cl)s1` (configuration not stated), the result (in the experiment with Candida albicans [1]; in experiment [2]; with Pseudomonas aeruginosa [3]; in the experiment on Salmonella typhimurium; in the experiment on Shigella sonnei; with Escherichia coli) was inactive. Moreover, the MIC against Staphylococcus aureus [6] and with Bacillus subtilis [7] was 12.5 µg/mL (≈ 26.8 µM) in each case.
With `CC(Oc1cc(Cl)c(Cl)cc1Cl)C(=O)NN1C(=O)CSC12C(=O)Nc1ccccc12` (configuration not stated), the outcome (with Candida albicans [1]; in experiment [2]; in the experiment with Pseudomonas aeruginosa [3]; with Salmonella typhimurium; with Shigella sonnei; in the experiment with Escherichia coli) was inactive. Also, the MIC came to 25 µg/mL (≈ 51.4 µM) in the experiment with Staphylococcus aureus [6] and 50 µg/mL (≈ 103 µM) in the experiment on Bacillus subtilis [7].
Turning to `CC(Oc1cc(Cl)c(Cl)cc1Cl)C(=O)N/N=C\c1cccc([N+](=O)[O-])c1` (configuration not stated), the outcome (with Candida albicans [1]; in experiment [2]; with Pseudomonas aeruginosa [3]; in the experiment on Salmonella typhimurium; in the experiment on Bacillus subtilis [4]; in the experiment with Shigella sonnei) was inactive. The result in the experiment with Staphylococcus aureus [5] and with Escherichia coli was inactive.
Regarding `CC(Oc1cc(Cl)c(Cl)cc1Cl)C(=O)NN1C(=O)CSC1c1cccs1` (configuration not stated), the outcome (in the experiment on Candida albicans [1]; in [2]; with Pseudomonas aeruginosa [3]; with Salmonella typhimurium; with Shigella sonnei; in the experiment on Escherichia coli) was inactive. Besides, the MIC in the experiment on Staphylococcus aureus [6] and against Bacillus subtilis [7] was 6.25 µg/mL (≈ 13.8 µM) each time.
